The source of these data is publication PMC6352937, “Inhibition of protein phosphatase-1 and -2A by ellagitannins: structure-inhibitory potency relationships and influences on cellular systems” (Journal of Enzyme Inhibition and Medicinal Chemistry, 2019).

The subject of one assay is HeLa lysate. The assay can be described thus: Phosphatase activity of HeLa cell lysate (32P-MLC20). To be noted: HeLa lysate in 300-fold dilution; 1 µM 32P-MLC20; mean ± SD. Format: biochemical, human. The protocol:
(§1) Protein phosphatase activity of either skeletal muscle PP1c or PP2Ac (1.9–2.2 nM), or rPP1cα or rPP1cδ (2.71–3.72 nM), or FLAG-MYPT1-PP1c (∼9 nM) was assayed at 30 °C in absence or presence of polyphenol compounds (0.1–100 µM) in 20 mM Tris/HCl (pH 7.4), 0.1% 2-mercaptoethanol (30 µL). The purified phosphatase samples or HeLa lysates in 300-fold dilution (1.8–3.6 µg/ml) in the presence or absence of 2 µM I2 were preincubated with increasing concentration of the polyphenol compounds (0–100 µM) for 10 min then the reaction was started by the addition of 1 µM ^32P-MLC20 and incubated for 10 min. Polyphenol-treated HeLa cells were washed then lysed in 50 mM Tris/HCl (pH 8.0), 150 mM NaCl, 1% (V/V) Triton X-100, 0.15% (w/v) protease inhibitor cocktail. The phosphatase activity was assayed with 1 µM ^32P-MLC20 for 30 s in 3-fold final dilution (0.24–0.43 mg/ml). The reactions were terminated by the addition of 200 µL of 10% trichloroacetic acid and 200 µL of 6 mg/mL BSA solution. The samples were centrifuged for 3 min at 10,000 rpm and the supernatants (370 µL) were transferred into scintillation vials and the radioactivity of the released ^32Pi was determined in Tri-Carb 2800TR scintillation counter.
(§2) The ellagitannins (Figure 1) assayed on the activity of PP1c or PP2Ac in this study are similar to PGG in composition, but they differ structurally in two important aspects: (i) all of them include hexahydroxydiphenoyl unit linked in various positions, except for pedunculagin which includes two of these linkages; (ii) tellimagrandin I, pedunculagin, and praecoxin B have free glycosidic hydroxyls, while GHG has an unmodified hydroxyl at position 3 of the glucopyranose ring. […] Inhibition of the phosphatase activity by ellagitannins in HeLa cell lysate was also assessed. First, we determined the activity of PP1 and PP2A in the lysates using I2 to inhibit PP1, and low concentration of OA (2 nM) to suppress PP2A specifically, in order to determine the contribution of PP1 and PP2A to the phosphatase activity of lysates (Figure 2(E)).
(§3) Figure 2. The effect of ellagitannins on the activity of PP1 and PP2A. Ellagitannins (0.1–100 µM) were preincubated with the phosphatase samples for 10 min and the phosphatase activity was determined in triplicates with 1 µM ^32P-MLC20 substrate as described in “Materials and methods” section. […] The effect of tellimagrandin I on the activity of rPP1cα (^) and rPP1cδ (●) (C), or FLAG-MYPT1-PP1cδ (▼) (D), or on the phosphatase activity of HeLa lysate in the presence of I2 (□) (F). The effect of I2 and OA on the phosphatase activity of HeLa lysate (E). Phosphatase activity in the absence of ellagitannins, I2 or OA was taken as 100%. Data are means ± SD (n = 3–5).

For another assay, the target named is PP2Ac. The assay can be described thus: Protein phosphatase assay with 32P-MLC20, native PP2Ac. Particulars: native PP2Ac from rabbit skeletal muscle; 1 µM 32P-MLC20; 10 min preincubation; mean ± SD. Format: biochemical. Here is the method: as §1, §2, §3
Another assay concerns the target PP1c. Briefly: Protein phosphatase assay with 32P-MLC20, native PP1c. Particulars: native PP1c from rabbit skeletal muscle; 1 µM 32P-MLC20; 10 min preincubation; mean ± SD. Format: biochemical. Here is the method: as §1, §2, §3
Another assay deals with T1, rPP1cα (Homo sapiens, UniProt P62136).
T1 construct: FLAG; made in house
T1 sequence (P62136 whole entry): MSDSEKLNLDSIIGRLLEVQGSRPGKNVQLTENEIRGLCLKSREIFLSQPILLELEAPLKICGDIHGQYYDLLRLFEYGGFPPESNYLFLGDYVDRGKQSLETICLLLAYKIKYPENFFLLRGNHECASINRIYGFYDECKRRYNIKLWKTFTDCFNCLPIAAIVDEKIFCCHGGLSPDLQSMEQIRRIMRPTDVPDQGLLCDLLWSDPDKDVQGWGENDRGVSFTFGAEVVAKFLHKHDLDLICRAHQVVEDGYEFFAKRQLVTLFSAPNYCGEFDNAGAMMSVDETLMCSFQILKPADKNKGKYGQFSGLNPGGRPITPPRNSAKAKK
Briefly: Microscale thermophoresis (MST). Format: binding. Particulars: unlabelled rPP1cα, intrinsic fluorescence (NT.LabelFree). The protocol:
Figure 3. […] The changes in either, the intrinsic fluorescence of unlabelled rPP1cα upon binding to tellimagrandin I and PGG, or changes in fluorescent signal from rPP1cα extrinsically labelled with NT647 dye upon binding with EGCG, were determined at a range of concentration of polyphenols, and the fractions bound are presented. Data points are means ± SD (n = 3).
A general note: In MST a laser heats a spot of the sample, and binding alters the fluorescence response.

Assay [1] has as its system HeLa cells. Briefly: Phosphatase activity of polyphenol-treated HeLa cells. Particulars: 1 h incubation; 0-50 µM tested. The format is cell-based, human. Here is the method:
as §1
HeLa cells and tsa201 cells were cultured as recommended by the supplier. […] The emission of resorufin was measured by a fluorimeter at 620 nm. […]

The next assay deals with SNAP-25^Thr138. The assay can be described thus: Phosphorylation of SNAP-25 Thr138 in cortical synaptosomes (Western blot). Format: cell-based, mouse. To be noted: synaptosomes treated 45 min at 30 °C; ellagitannins 1-100 µM, TMC 10 µM. The protocol: (§4) Preparation of synaptosomes from murine brain cortex was carried out as described previously. Functional synaptosomes were kept in Krebs buffer (118 mM NaCl, 5 mM KCl, 25 mM NaHCO3, 1 mM MgCl2, 10 mM D-glucose, pH 7.4). After preparation, synaptosomes were treated with either tellimagrandin I or mahtabin A in 1, 10 or 100 µM final concentrations, or with 10 µM tautomycetin (TMC) for 45 min at 30 °C. After the treatments synaptosomes were applied for exocytosis assay or were lysed and the protein lysates were subjected to Western blot. For exocytosis assay an already established protocol[25] was used. FM 2–10 water-soluble styryl dye was incorporated first into the outer leaflet of synaptosome membrane, then into the synaptosomes. Exocytosis was induced by addition of 30 mM KCl to the synaptosomes. The fluorescent intensity of FM 2–10 styryl dye negatively correlated with the extent of synatposomal exocytosis and was measured by Fluoroskan FL (excitation: 488 nm, emission: 540 nm). Western blot of synaptosome proteins was carried out as described previously[24]^,[25].
Figure 5. […] E: Representative Western blot with anti- SNAP-25^pThr138 specific antibody. F: Relative changes in the amount of SNAP-25^pThr138 determined by densitometry of the Western blots normalised on the bands obtained for the loading controls. Data are means ± SD (n = 3). ANOVA *p < .05, **p < .01, ***p < .001, n.s.: not significant.
(In western blotting, separated proteins are transferred to a membrane and probed.)

The test system of assay [2] is mouse cortical synaptosomes. The assay can be described thus: KCl induced exocytosis of cortical synaptosomes (FM 2-10 dye). Format: cell-based. To be noted: 30 mM KCl; FM 2-10 fluorescence; 45 min treatment. Here is the method: as §4
Figure 5. […] E: Representative Western blot with anti- SNAP-25^pThr138 specific antibody. F: Relative changes in the amount of SNAP-25^pThr138 determined by densitometry of the Western blots normalised on the bands obtained for the loading controls. Data are means ± SD (n = 3). […]

The test system of assay [3] is HeLa cells. The assay can be described thus: HeLa cell viability, Alamar-blue assay. The format is cell-based, human. Particulars: 24 h incubation, serum free; 0-50 µM tested. Here is the method:
HeLa cells and tsa201 cells were cultured as recommended by the supplier. Prior to treatments HeLa cells were serum starved in MEM medium supplemented with 2 mM L-glutamine for 17 h. For phosphatase activity assay cells were treated with increasing concentration of polyphenol compounds (1–50 µM) for 1 h. To assess cell viability by Alamar-blue assay serum starved cells were treated with ellagitannins (1–50 µM) for 24 h in serum free MEM medium. The media was exchanged for resazurin (20 µM) containing serum free media and the cells were incubated for 2 h to enhance resorufin formation by the viable cells. The emission of resorufin was measured by a fluorimeter at 620 nm.
Figure 4. Distinct influence of ellagitannins on the survival and phosphatase activity of HeLa cells. The effect of tellimagrandin I and mahtabin A was assayed on the survival (A) and the phosphatase activity (B) of HeLa cells in 0–50 µM concentration range as detailed in Materials and methods. The cell survival and the phosphatase activity in the absence of ellagitannins were taken as 100%. Data represent means ± SD (n = 3). ANOVA *p < .05, **p < .01, ***p < .001, n.s.: not significant.
In general terms: Alamar Blue is a resazurin reagent that responds to reducing activity.

As to `O=C(O[C@@H]1O[C@@H]2COC(=O)c3cc(O)c(O)c(O)c3-c3c(cc(O)c(O)c3O)C(=O)O[C@H]2[C@H](O)[C@H]1OC(=O)c1cc(O)c(O)c(O)c1)c1cc(O)c(O)c(O)c1` [GHG, 1,2-di-O-galloyl-4,6-(S)-hexahydroxydiphenoyl-β-D-glucose], the IC50 (commonly the concentration at which inhibition is half-maximal) in the assay with HeLa lysate was 13 ± 3.3 µM; at PP2Ac, over 100 µM; against PP1c, 1.41 ± 0.3 µM.

With `O=C(OC[C@H]1O[C@@H](OC(=O)c2cc(O)c(O)c(O)c2)[C@H](OC(=O)c2cc(O)c(O)c(O)c2)[C@@H](OC(=O)c2cc(O)c(O)c(O)c2)[C@@H]1OC(=O)c1cc(O)c(O)c(O)c1)c1cc(O)c(O)c(O)c1` [PGG, penta-O-galloyl-β-D-glucose], binding on rPP1cα was characterised by a dissociation constant (Kd) of 3.08 ± 0.35 µM.

For the compound `O=C(OC[C@H]1O[C@@H](OC(=O)c2cc(O)c(O)c(O)c2)[C@@H]2OC(=O)c3cc(O)c(O)c(O)c3-c3c(cc(O)c(O)c3O)C(=O)O[C@H]2[C@@H]1OC(=O)c1cc(O)c(O)c(O)c1)c1cc(O)c(O)c(O)c1` [mahtabin A], in the assay on HeLa cells [1], the “Effect on phosphatase activity of HeLa cells” value was “without effect”. The “Effect on phosphorylation level of SNAP-25^Thr138” value in the assay with SNAP-25^Thr138 is given as “increased the amount of phosphorylated SNAP-25^Thr138”. Moreover, the IC50 was 6.19 ± 0.37 µM in the assay with HeLa lysate, 33.8 ± 8.44 µM against PP2Ac and 0.41 ± 0.18 µM against PP1c. In addition, the “Effect on KCl induced synaptosomal exocytosis” value in assay [2] is recorded as “suppressed exocytosis”. The “Effect on viability (survival) of HeLa cells” value in the assay with HeLa cells [3] was “without effect”.

Turning to `O=C1OC[C@H]2OC(O)[C@@H]3OC(=O)c4cc(O)c(O)c(O)c4-c4c(cc(O)c(O)c4O)C(=O)O[C@H]3[C@@H]2OC(=O)c2cc(O)c(O)c(O)c2-c2c1cc(O)c(O)c2O` (some centres unmarked) [pedunculagin], the values for the concentration for half-maximal inhibition (IC50) in the assay on HeLa lysate, against PP2Ac and at PP1c were 33.9 ± 4.54 µM, over 100 µM and about 2.47 µM, respectively.
